Holding throughout (assay): growth of human tumour cells (NCI), 48 h
Test [1] has as its system SK-MEL-28 melanoma.
Test [2] has as its system NCI-H23 lung.
Test [3] deals with ACHN renal.
The subject of test [4] is RXF 393 renal.
For test [5], the system named is HCT-116 colon.
In test [6] the test system is HT29 colon.
The test system of test [7] is RPMI-8226 leukemia.
Test [8] has as its system SR leukemia.
The test system of test [9] is HL-60(TB) leukemia.
Test [10] concerns COLO 205 colon.

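48-hour exposure; five concentrations; linearly interpolated endpoints. TGI: concentration producing complete growth inhibition.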

As to `O=C(Nc1cccc2cnccc12)c1cc2c(cc1Cl)Sc1nccn1S2(=O)=O`, the TGI in test [1] turned out to be 53.1 µM; in [2] it was 28.6 µM; in test [3] it was 77.9 µM; in [4], 24.4 µM; in test [5] it was 20 µM; in test [6] it was 48.3 µM. Also, the TGI was found to be 38.6 µM in [7], 48.9 µM in test [8], 21.8 µM in test [9] and 30.8 µM in [10].
Consider `CCC1=CCC23C(=O)C=CC(=O)C2(C1)C(=O)c1cccc(OC)c1C3=O` (stereo not given), for which the TGI in test [1] worked out at 33.3 µM; in [2], 46.4 µM; in test [3], 27.4 µM; in test [4] it was 21 µM; in [5] it was 30.4 µM; in test [6] it was 55.8 µM. Further, the TGI turned out to be 33.4 µM in [7], 41.4 µM in [8], 7.36 µM in test [9] and 28.4 µM in test [10].
For `COc1ccc(/C(=N/O)c2ccccc2-c2nc3ccccc3c(=O)n2-c2ccc(S(=O)(=O)Nc3ncccn3)cc2)cc1C`, the TGI in test [1] is 23 µM; in test [2], 27.6 µM; in test [3] it was 25.1 µM; in [4], 19.8 µM; in [5], 22.1 µM; in test [7], 42.9 µM. Moreover, the TGI in [8] was 31 µM; in test [9], 20 µM; in [10], over 31.6 µM.
In the case of `COc1ccc(N2C(=O)c3c4c(c5c([nH]c6ncccc65)c3C2=O)CCC(C(C)(C)C)C4)cc1` (stereo not given), the TGI in test [1], in test [2], in test [3], in [4], in [5] and in test [6] was over 100 µM in each case. Moreover, the TGI in test [7], in test [8], in test [9] and in [10] was over 100 µM in each case.
In the case of `C=C(Cl)/C(=C\Cl)CCC(Br)C(C)C` (stereo not given), the TGI in test [1], in test [2], in test [3], in [4], in [5] and in test [6] was over 100 µM in each case. Also, the TGI in test [7], in [8], in test [9] and in test [10] was over 100 µM each time.
On to `OC[C@@H](O)[C@H]1NC[C@@H](O)[C@H]1O`, for which the TGI in test [1], in test [2], in [3], in [4], in [5] and in test [6] was over 100 µM in each case. In addition, the TGI in [7], in [8], in test [9] and in test [10] was over 100 µM throughout.
`CCC(C(=O)O)c1ccc(OCc2ccccc2)cc1` (stereo not given): the TGI in test [1], in [2], in test [3], in test [4], in [5] and in test [6] was over 100 µM throughout. The TGI in [7], in test [8], in test [9] and in test [10] was over 100 µM in each case.
`COc1cc2c(cc1OCCCCOc1cc(-c3ccc(F)cc3)nc(C)n1)N=C[C@@H]1CCCN1C2=O`: the TGI in test [1] was found to be 2.81 µM; in [2], 1.37 µM; in test [3] it was 0.823 µM; in [4], 3.22 µM; in test [5], 8.59 µM; in test [6], 3.92 µM. The TGI in test [7] was determined as 0.36 µM; in test [8] it was 0.363 µM; in [9], 28.7 µM; in test [10], 1.17 µM.
Regarding `C[n+]1c(-c2ccccc2)cc2/c(=C\c3ccc([N+](=O)[O-])cc3)c3ccccc3n21`, the TGI in [1] is 24 µM; in test [2], 13.6 µM; in test [3], over 38.5 µM; in test [4], 19.5 µM; in [5] it was 14 µM; in [6] it was over 32.6 µM. Moreover, the TGI was over 100 µM in [7], over 41.7 µM in test [8], 3.07 µM in test [9] and over 100 µM in test [10].
Take `Cc1cc(C)c2c(=O)n(CN3CC4Nc5ccccc5C4C3)sc2n1` (stereo not given): the TGI in [1] was determined as 82.3 µM; in [2], 47.6 µM; in test [3], 33.8 µM; in [4], 40.4 µM; in [5], 43.7 µM; in [6], 46.1 µM. The TGI in [7] was over 100 µM; in test [8] it was over 100 µM; in test [9], 63.2 µM; in test [10], 71.5 µM.
In the case of `CC(=O)OC[C@]1(C(=O)C(O)c2ccoc2)[C@H](C)CC[C@@]23COC(=O)C2=CCC[C@@H]31` (stereo not given in full), the TGI in test [2], in test [3], in test [4], in [5], in test [6] and in test [7] was over 10 µM in each case. The TGI in test [8], in [9] and in [10] was over 10 µM in each case.
For the compound `COc1cccc(-c2cc(=O)c3c(C)cc(C)nc3[nH]2)c1`, the TGI is over 100 µM in test [1]; over 38.4 µM in test [2]; over 100 µM in test [3]; over 100 µM in test [4]; over 59.9 µM in test [5]; 6.09 µM in [7]. Moreover, the TGI worked out at 0.513 µM in test [8], 0.505 µM in [9] and 0.637 µM in test [10].
Regarding `CC(C)=C[C@@H]1C[C@H](n2cc(C)c(=O)[nH]c2=O)ON1CCO`, the TGI in [1], in [3], in test [4], in test [5], in test [6] and in [7] was over 100 µM each time. The TGI in test [8], in [9] and in test [10] was over 100 µM in each case.
`CN(C)c1ccc(-c2c(C#N)c(S)n(NS(=O)(=O)c3ccccc3)c(=O)c2C#N)cc1`: the TGI in test [1] is over 100 µM; in test [2], over 100 µM; in test [3] it was over 100 µM; in test [4], over 100 µM; in test [5], over 100 µM; in [7] it was 91 µM. In addition, the TGI in [8] was over 100 µM; in test [9], 85.2 µM; in [10], over 100 µM.

The values are drawn from PubChem BioAssay (NCI).
